Results: patent US7977375B2, “Antibiotic and method of production thereof” (Helmholtz-Zentrum Für Infektionsforschung GmbH, priority 2004, dated 2011)
Values after ≈ are worked out from the molar mass of the structure shown.

How the values were obtained:
[1] = test system: S. aureus # (non-methicillin-resistant reference strain); test: MIC / MBC in liquid culture; type: cell-based, Staphylococcus aureus; settings: S. aureus #
[2] = test system: MRSA 2; test: MIC / MBC in liquid culture; type: cell-based, Staphylococcus aureus; settings: MRSA 2
[3] = test system: MRSA 3; test: MIC / MBC in liquid culture; type: cell-based, Staphylococcus aureus; settings: MRSA 3
[4] = test system: E. faecalis ATCC 29212; test: MIC / MBC in liquid culture; type: cell-based, Enterococcus faecalis
[5] = test system: E. faecalis VRAS E305; test: MIC / MBC in liquid culture; type: cell-based, Enterococcus faecalis; settings: E. faecalis VRAS E305
[6] = test system: E. faecium VRAR E315; test: MIC / MBC in liquid culture; type: cell-based, Enterococcus faecium; settings: E. faecium VRAR E315
[7] = test system: Candida parapsilosis DSM5784; test: MIC / MBC in liquid culture; type: cell-based; settings: Lodderomyces parapsilosis, read-out: MIC (minimal inhibitory concentration)
[8] = test system: Candida krusei DSM 6128; test: MIC / MBC in liquid culture; type: cell-based; settings: Pichia kudriavzevii
[9] = test system: Candida albicans DSM 11225; test: MIC / MBC in liquid culture; type: cell-based; settings: DSM11225, read-out: MIC (minimal inhibitory concentration)
[10] = test system: Staphylococcus aureus (#); test: kinetics of growth at sub-MIC concentrations (FIG. 1A); type: cell-based; settings: S. aureus #, 1 or 4 μg/ml
Procedure: Investigation of the bacteriostatic activity of 7-O-malonyl macrolactin A required testing the effects of sub-MIC concentrations. […] 24 hours after treatment, the titre of viable cells was reduced by a factor of 100 as compared to the control without 7-O-malonyl macrolactin A.
(§1) • FIG. 1A y-axis: Log CFU (Colony Forming Units) Cells/ml • x-axis: Time (HRS) • FIG. 1B y-axis: Log CFU (Colony Forming Units) Cells/ml • x-axis: Time (HRS) • FIG. 1C: y-axis: Log CFU (Colony Forming Units) Cells/ml • x-axis: Time (HRS) • FIG. 1D: y-axis: Log CFU (Colony Forming Units) Cells/ml • x-axis: Time (HRS) • FIG. 1E: y-axis: Log CFU (Colony Forming Units) Cells/ml • x-axis: Time (HRS) • FIG. 1F: y-axis: Log CFU (Colony Forming Units) Cells/ml • x-axis: Time (HRS) • FIG. 5A: y-axis: % Inhibition • x-axis Concentration μg/ml • FIG. 5B: y-axis: % Inhibition • x-axis Concentration μg/ml

[11] = test system: Enterococcus faecalis ATCC 29212; test: kinetics of growth at sub-MIC concentrations (FIG. 1C); type: cell-based; settings: E. faecalis ATCC 29212; 4 or 16 μg/ml; four hours following cultivation
Text: as §1

[12] = test system: Enterococcus faecium VRAR E315; test: kinetics of growth at sub-MIC concentrations (FIG. 1D); type: cell-based; settings: E. faecium E315; 4 or 16 μg/ml; four hours following cultivation
Text: as §1

[13] = test system: Candida krusei DSMZ6128; test: kinetics of growth (FIG. 1E); type: cell-based; settings: C. krusei; 128 μg/ml
Text: as §1

[14] = test system: Burkholderia cepacia SCV 141; test: kinetics of growth (FIG. 1F); type: cell-based; settings: B. cepacia SCV 141; 32 μg/ml
Text: as §1

[15] = test system: S. aureus MRSA 3; test: electron microscopy of cell division (FIG. 2); type: cell-based, Staphylococcus aureus; settings: 16 μg/ml, 4 hours shake culture
Procedure: FIGS. 2 a), b) and c) are electron microscope photographs of S. aureus MRSA 3 after 4 hours growth without antibiotic and d), e) and f) in the presence of 16 μg/ml 7-O-malonyl macrolactin A;
(§2) It is thought that 7-O-malonyl macrolactin A inhibits the division of bacterial cells, which interrupts the proliferation thereof.
7-O-malonyl macrolactin A influences cell division in MRSA 3, which is evident from the altered division planes. […] The large black arrowheads (FIGS. 2e) and f)) indicate the division planes, while the small black arrowheads indicate an asymmetrical initiation of cell division.

[16] = test system: E. faecium VRAR E315; test: electron microscopy of cell division (FIG. 3); type: cell-based, Enterococcus faecium; settings: 16 μg/ml, 4 hours
Procedure: FIG. 3 a) to c) are electron microscope photographs of E. faecium VRAR E315 after 4 hours growth without antibiotic and d), e) and f) in the presence of 16 μg/ml 7-O-malonyl macrolactin A;
as §2
The effect of 7-O-malonyl macrolactin A on cell division can also be observed from the electron microscope photographs of Enterococcus faecium (VRAR=vancomycin-resistant, ampicillin-resistant, E315, clinical isolate) shown in FIG. 3. The division planes of the untreated cells after 4 hours growth without antibiotic appear as light regions in FIGS. 3a), b) and c). […] In this example, however, no fully formed cell division planes are evident. The initiation of asymmetrical cell division is indicated by the small black arrowheads.

[17] = test system: bacteria, especially gram-positive bacteria; test: bacteriostatic activity, general statement; type: cell-based; settings: very low concentrations
Procedure: 7-O-malonyl macrolactin A is antibiotically active against bacteria, especially gram-positive bacteria and is, in particular, advantageously bacteriostatic at very low concentrations, for example, in the region of 0.05-4 μg/ml. […] The bacteriostatic activity of 7-O-malonyl macrolactin A has already been observed at weak concentrations, as compared to the prior art macrolactin A, even where there has been no direct or immediate bactericidal effect at such low concentrations.

[18] = Staphylococcus aureus, pronounced inhibition of growth, read-out: MBC (minimal bacteriostatic or fungistatic concentration)
[19] = Staphylococcus aureus, read-out: MIC (minimal inhibitory concentration)

For CC1CCC/C=C/C=C/C(O)CC(O)C/C=C\C=C\C(OC(=O)CC(=O)O)C/C=C/C=C\C(=O)O1 (stereo not shown) [7-O-malonyl macrolactin A], the “MIC (minimal inhibitory concentration)” value [1] was greater than 128 µg/mL, the MBC [1, 18] was 1 µg/mL (≈ 2.05 µM) and the MIC [1, 19] was greater than 128 µg/mL. For the same compound, the “MIC (minimal inhibitory concentration)” value [2] was greater than 128 µg/mL, the MBC [2, 18] was 4 µg/mL (≈ 8.19 µM) and the MIC [2, 19] was greater than 128 µg/mL. The “MIC (minimal inhibitory concentration)” value [3] was greater than 128 µg/mL, the MBC [3, 18] was 4 µg/mL (≈ 8.19 µM) and the MIC [3, 19] was greater than 128 µg/mL. For the same compound, the “MIC (minimal inhibitory concentration)” value ([4]; E. faecalis ATCC 29212) was 128 µg/mL (≈ 262 µM), the MBC ([4]; Enterococcus faecalis, ATCC29212, E. faecalis ATCC 29212, read-out: MBC (minimal bacteriostatic or fungistatic concentration)) was 4 µg/mL (≈ 8.19 µM) and the MIC ([4]; Enterococcus faecalis, ATCC29212, E. faecalis ATCC 29212, read-out: MIC (minimal inhibitory concentration)) was greater than 128 µg/mL. The “MIC (minimal inhibitory concentration)” value [5] was greater than 128 µg/mL, the MBC ([5]; Enterococcus faecalis, VRASE305, read-out: MBC (minimal bacteriostatic or fungistatic concentration)) was 0.06 µg/mL (≈ 0.123 µM) and the MIC ([5]; Enterococcus faecalis, VRASE305, read-out: MIC (minimal inhibitory concentration)) was greater than 128 µg/mL. For the same compound, the “MIC (minimal inhibitory concentration)” value [6] was greater than 128 µg/mL, the MBC ([6]; Enterococcus faecium, VRARE315, read-out: MBC (minimal bacteriostatic or fungistatic concentration)) was 4 µg/mL (≈ 8.19 µM) and the MIC ([6]; Enterococcus faecium, VRARE315, read-out: MIC (minimal inhibitory concentration)) was greater than 128 µg/mL. The MIC [7] was 128 µg/mL (≈ 262 µM), the MBC ([8]; DSM6128, read-out: MBC (minimal bacteriostatic or fungistatic concentration)) was 32 µg/mL (≈ 65.5 µM) and the MIC ([8]; DSM6128, read-out: MIC (minimal inhibitory concentration)) was greater than 128 µg/mL. The MIC [9] was greater than 128 µg/mL, the “effect on kinetics of growth” value ([10]; far below the MIC, first 4 hours) was “kills off this bacterium within the first 4 hours following dosage” and the “growth reduced by a factor” value ([10]; subsequent cultivation time) was 10. For the same compound, the “effect on kinetics of growth” value [11] was “inhibited the growth”, the “effect on kinetics of growth” value [12] was “almost completely inhibited” and the “growth inhibited by a factor” value [13] was no more than 10. The “growth inhibited by a factor” value [14] was no more than 10, the “effect on cell division, electron microscope” value [15] was “disrupted cell division” and the “effect on cell division, electron microscope” value [16] was “anomalous, asymmetrical cell division is being initiated”. It also gave a bacteriostatic concentration [17] of 0.05 to 4 µg/mL.
